Where a SMILES comes first, the peptide text is derived from it.
Assays:
PDK1 [1] = conditions: ref [24], cited from earlier work
PDK1 [2] = target: T1, PDK1 (Homo sapiens, UniProt O15530); experiment: Phosphorylation of GST-p70 S6K-T2 by PDK1 in vitro (32P autoradiography); type: biochemical; design: made in house; host or cells: 293 cells or E. coli; conditions: GST-PDK1 50 nM
T1 sequence (O15530 1-556): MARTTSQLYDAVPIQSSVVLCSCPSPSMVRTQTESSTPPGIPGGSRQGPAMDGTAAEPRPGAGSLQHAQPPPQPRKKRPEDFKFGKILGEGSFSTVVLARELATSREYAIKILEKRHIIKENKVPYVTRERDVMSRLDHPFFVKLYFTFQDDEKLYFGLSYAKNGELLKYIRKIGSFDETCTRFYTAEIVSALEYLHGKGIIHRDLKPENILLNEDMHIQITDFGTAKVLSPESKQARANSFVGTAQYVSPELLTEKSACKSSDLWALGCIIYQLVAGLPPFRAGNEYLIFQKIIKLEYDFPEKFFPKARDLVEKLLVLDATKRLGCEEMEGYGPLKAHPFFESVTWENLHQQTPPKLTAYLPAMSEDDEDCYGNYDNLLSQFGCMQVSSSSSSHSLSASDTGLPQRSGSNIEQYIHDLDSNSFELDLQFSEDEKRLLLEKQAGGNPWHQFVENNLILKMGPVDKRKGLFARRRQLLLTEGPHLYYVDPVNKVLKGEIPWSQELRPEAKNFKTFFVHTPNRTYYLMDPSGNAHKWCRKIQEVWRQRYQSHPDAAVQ
Procedure: FIG. 1. PIF prevents PDK1 from phosphorylating p70 S6K in vitro. GST-p70 S6K lacking the C-terminal 104 amino acids (GST-p70 S6KT2) (1 μg) was incubated for 30 min at 30° C. with Mg [γ^32P] ATP and GST-PDK1 (50 nM) in the presence or absence of either wild type (wt) GST-PIF or D978A GST-PIF (1.5 μM), or the indicated PIF peptides (4 μM) in a final volume of 20 μl. The reactions were terminated by making the solutions 1% in SDS, the samples subjected to SDS-polyacylamide gel electrophoresis, and the phosphorylation assessed by autoradiography of the gel. The position in the gel where GST-p70 S6KT2 (73 kDa) migrates is indicated with an arrow. The only other ^32P-labelled protein on the gel which is not shown, corresponded to autophosphorylation of PDK1 and contained ˜10 fold lower levels of ^32P-radioactivity than that of the GST-p70 S6T2 phosphorylated by PDK1 in the absence of PIF. A high amount of PDK1 is used in this experiment to achieve a near maximal phosphorylation of GST-p70 S6T2. If the reactions were carried out at a 10-fold lower concentration of PDK1 under conditions where the phosphorylation of GST-p70 S6T2 by PDK1 is linear with time and the amount of substrate used, then PIF still prevented the phosphorylation of GST-p70 S6T2 (data not shown). wt indicates wild type and PSer indicates phospho-serine. The results of a duplicate experiment for each condition are shown, and similar findings were obtained in five separate experiments.
Preparation of insect cell His-p70 S6K. p70 S6K with a His-epitope tag at its N-terminus lacking the carboxy terminal 104 residues is termed p70 S6K-T2. In order to prepare wild type and the mutant 412E-p70 S6K-T2 the cDNA for these constructs was amplified by PCR from the pMT2 vector encoding these forms of p70 S6K [6] using the following oligonucleotides: 5′-AGGATCCACCATGCACCATCACCATCACCATATGAGGCGAGCAAGGAGGCGG-3′ and 5′-GCGGCCGCTCAACTTTCAAGTACAGATGGAGCC-3′. The PCR products were then subcloned into the BamH1/Not1 sites of the pFASTBAC 1 vector and this vector was used to generate recombinant baculovirus using the Bac-to-Bac system (Life Technologies Inc). The resulting viruses, encoded p70 S6K-T2 or 412E-p70 S6K-T2 with an N-terminal hexahistidine sequence, and was used to infect Sf21 cells (1.5×10^6/m) at a multiplicity of infection of 5. The infected cells were harvested 72 h post-infection and the His-p70 S6K proteins purified by Ni^2+/NTA (nitrilotriacetic acid)-agarose chromatography as described previously for PKBβ [25]. […]

effect on phosphorylation of GST-p70 S6K-T2 by PDK1 (PDK1 [2]; GST fusion 1.5 μM) | Compound | reduced affinity for PDK1 compared with wild type PIFtide (PDK1 [1]) [fold] | effect on phosphorylation of GST-p70 S6K-T2 by PDK1 (PDK1 [2]; peptide 4 μM) | Kd (PDK1 [1]; read-out: affinity of PDK1 for PIFtide (Kd)) [nM]
 | CC[C@H](C)[C@H](NC(=O)[C@H](CCCNC(=N)N)NC(=O)[C@@H]1CCCN1C(=O)[C@H](CCC(=O)O)NC(=O)[C@@H](N)CCCNC(=N)N)C(=O)N[C@@H](CC(C)C)C(=O)N[C@@H](CO)C(=O)N[C@@H](CCC(=O)O)C(=O)N[C@@H](CCC(=O)O)C(=O)N[C@@H](CCC(=O)O)C(=O)N[C@@H](CCC(N)=O)C(=O)N[C@@H](CCC(=O)O)C(=O)N[C@@H](CCSC)C(=O)N[C@@H](Cc1ccccc1)C(=O)N[C@@H](CCCNC(=N)N)C(=O)N[C@@H](CC(=O)O)C(=O)N[C@@H](Cc1ccccc1)C(=O)N[C@@H](C)C(=O)N[C@@H](Cc1ccc(O)cc1)C(=O)N[C@@H](CC(C)C)C(=O)N[C@@H](C)C(=O)N[C@@H](CC(=O)O)C(=O)N[C@@H](Cc1c[nH]c2ccccc12)C(=O)N[C@@H](CS)C(=O)O [D978A-PIFtide] (H-REPRILSEEEQEMFRDFAYLADWC-OH; N-terminus and C-terminus assumed) | 10 | poorly inhibited | 
 | CC[C@H](C)[C@H](NC(=O)[C@H](Cc1ccc(O)cc1)NC(=O)[C@H](CC(=O)O)NC(=O)[C@H](Cc1ccccc1)NC(=O)[C@H](CC(=O)O)NC(=O)[C@H](CCCNC(=N)N)NC(=O)[C@H](Cc1ccccc1)NC(=O)[C@H](CCSC)NC(=O)[C@H](CCC(=O)O)NC(=O)[C@H](CCC(N)=O)NC(=O)[C@H](CCC(=O)O)NC(=O)[C@H](CCC(=O)O)NC(=O)[C@H](CCC(=O)O)NC(=O)[C@H](CO)NC(=O)[C@H](CC(C)C)NC(=O)[C@@H](NC(=O)[C@H](CCCNC(=N)N)NC(=O)[C@@H]1CCCN1C(=O)[C@H](CCC(=O)O)NC(=O)[C@@H](N)CCCNC(=N)N)[C@@H](C)CC)C(=O)N[C@@H](C)C(=O)N[C@@H](CC(=O)O)C(=O)N[C@@H](Cc1c[nH]c2ccccc12)C(=O)N[C@@H](CS)C(=O)O [PIFtide] (H-REPRILSEEEQEMFRDFDYIADWC-OH; N-terminus and C-terminus assumed) |  | unable to phosphorylate | ~300
unable to phosphorylate | GST-PIF: glutathione S-transferase fused to the last 77 residues of PRK2 (PIF) |  |  | 

— patent US20080009025A1, “PROTEIN KINASE REGULATION” (priority 1999, published 2008)
